{
  "source": "patent US20170315129A1",
  "about": "“CANCER CELL DETECTION METHOD USING LIVING BODY-DERIVED CELLS OF BIOLOGICAL ORIGIN” (Hirosaki University, priority 2014, published 2017)",
  "key": {"[1]": {"test_system": "ascites cells obtained during an operation of a patient with ovarian cancer (serous adenocarcinoma)", "experiment": "Live-cell fluorescence imaging by the perfusion method, original ascites cells, ovarian cancer patient (Example 4)", "format": "cell-based, human", "details": "cancer cell cluster; perfusion 100 μM 2-NBDLG and 20 μM 2-TRLG for 5 minutes, imaged 10 minutes after switch to KRB; FIG. 7A/7B, 8D", "protocol": "A surplus portion of the original ascitic fluid taken from the peritoneal cavity immediately after the start of laparotomy for ovarian cancer (serous adenocarcinoma) was added to a 50 mL centrifuge tube having 5 mL of the Hanks solution in advance. The obtained ascitic fluid suspension was checked for presence of fibrin with a toothpick, and then passed through a mesh to remove fat and impurities. Next, it was evenly dispensed into two 50 mL centrifuge tubes, and centrifuged at 1500 G for 2 minutes at room temperature. The supernatant of each of the two centrifuge tubes was then gently removed from the liquid surface down to 7.5 mL with an electric pipette, and then the rest was further removed with a dropper to leave 1 mL. The sedimented layer containing red blood cells and the like were present at the bottom of the centrifuge tube. A 1 mL portion was collected from the upper surface with a dropper without aspirating red blood cells from the sedimented layer to obtain an ascites cell suspension. • (2) Adhesion of Ascites Cells on Glass Plate by Centrifugation, and Method of Maintaining Cell Viability\nThe ascites cells were allowed to attach on a glass plate using a commercially available automated cell collecting system CF-12D (Sakura Finetek Japan Co., Ltd.). […]"}, "[2]": {"test_system": "cultured cells", "details": "2-TRLG and 2-NBDLG applied together to cultured cells; cited from earlier work"}, "[3]": {"test_system": "glucose transporter GLUT", "details": "cited from earlier work"}, "[4]": {"test_system": "cells in peritoneal washing obtained during an operation of a patient with endometrial cancer (endometrial endometrioid adenocarcinoma)", "experiment": "Live-cell fluorescence imaging by perfusion, cells in peritoneal washing, endometrial cancer patient (Example 5)", "format": "cell-based, human", "details": "cell clusters a and b (apparent mesothelial cells and apparent macrophage cells); perfusion 100 μM 2-NBDLG and 20 μM 2TRLG; FIG. 11A/11B, 12D", "protocol": "A peritoneal washing obtained immediately after the start of laparotomy for endometrial cancer (endometrial endometrioid adenocarcinoma) in the same manner as in Example 1 was added to a 50 mL centrifuge tube having 5 mL of the Hanks solution in advance. Fibrin, fat, and impurities were removed from the ascitic fluid suspension in the same manner as in Example 4. Subsequently, a half of it was dispensed into a 50 mL centrifuge tube, and centrifuged at 1500 G for 2 minutes at room temperature. The supernatant was processed in the same manner as in Example 4 to obtain 1 mL of an ascites-cell suspension. • (2) Adhesion of Ascites Cells on Glass Plate by Centrifugation, and Method of Maintaining Cell Viability\nThe ascites-cell suspension in an amount of 1 mL taken at (1) was transferred to a plastic chamber dedicateded for CF-12D as in Example 4. The ascites cells were allowed to attach on a glass plate by centrifugation at 1400 rpm for 1 minute at room temperature. The plate was then treated as in Example 4, and stored in a moisture chamber until being mounted on the perfusion stage. • (3) Attachment of Glass Plate on Perfusion Stage and Perfusion […]\nIt was performed as in Example 4. Only a green fluorescence image was taken before administration of the fluorescently labeled L-glucose derivative. […]"}},
  "note": "Entries after “also recorded” stand apart in the source; their conditions may differ.",
  "data": [
    {"smiles": "O=C[C@@H](Nc1ccc([N+](=O)[O-])c2nonc12)[C@H](O)[C@@H](O)[C@@H](O)CO", "note": "[2-NBDLG, 2-[N-(7-nitrobenz-2-oxa-1,3-diazole-4-yl)amino]-2-deoxy-L-glucose]", "values": [
      {"measurement": "fluorescence from 2-NBDLG (green wavelength region), after vs before application of fLG", "setting": "[1]", "result": "shows fluorescence; also recorded: positive"},
      {"measurement": "uptake into cells having damaged plasma membranes or showing nonspecific uptake such as phagocytosis", "setting": "[2]", "result": "taken up into cells having damaged plasma membranes"},
      {"measurement": "binding to glucose transporter GLUT", "setting": "[3]", "result": "does not bind"},
      {"measurement": "fluorescence from 2-NBDLG (green wavelength region), after vs before application", "setting": "[4]", "result": "Neither the cell cluster a nor b shows fluorescence; also recorded: negative"}
    ]}
  ]
}
